Data: patent US20210163453A1, “DERIVATIVES OF PAPAVERINE THAT ARE EFFECTIVE HYPOXIC TUMOR RADIOSENSITIZERS” (Ohio State Innovation Foundation, priority 2018, published 2021)
Entries after “also recorded” stand apart in the source; their conditions may differ.

Columns and labels:
[1] = system: mitochondrial complex 1; test: Seahorse OCR inhibition of PPV derivatives, normalized to PPV; type: cell-based; details: Seahorse; for Inhibitory activity OCR % of PPV: OCR inhibition at 10 μM concentration, normalized to PPV
Procedure: FIGS. 7A-7D show OCR and cellular toxicity data. […]. Bars represent mean OCR and PDE10 inhibitory activities from at least 5 (OCR) or 3 (PDE) replicates. All experiments were repeated at least twice. […] Values are mean+−SEM.
(§1) Seahorse analysis of the OCR. Oxygen consumption rate (OCR) was measured using Seahorse XF96 Flux Analyzer (Agilent Technologies). The cells were seeded to attach overnight, wells were washed with pre-warmed XF Calibrant (Agilent Technologies) and the replaced with unbuffered Assay Medium (pH 7.4, 5 mM glucose, 1 mM L-glutamine). The plates were incubated at 37° C. in a CO2-free incubator for 2 hours prior to assay. For succinate rescue assay, cells were permeabilized using XF Plasma Membrane Permeabilizer Reagent (XF PMP, Agilent Technologies) according to the manufacturer's instructions. The OCR rate was measured in 1× Mitochondrial Assay Solution (MAS) (70 mM sucrose, 220 mM mannitol, 10 mM KH2PO4, 5 mM MgCl2, 2 mM Hepes, 0.6% (w/v) fatty acid-free BSA and 1 mM EGTA; pH 7.4). After baseline oxygenation was established, 1 μM rotenone or 10 μM PPV was injected at time A, followed by 5 mM succinate at time B. Error bars represent standard deviation. For the washout experiment, EO771 cells were seeded overnight, then treated with 10 μM PPV or 1 μM rotenone 3 hours prior to OCR measurement. Media was replaced 1 and 2 hours before measurement and OCR reported.
Because PPV's effect on mitochondrial function is independent of cAMP levels it was reasoned that there are two activities in PPV, one inhibiting complex 1 and one inhibiting PDE10A that may reside in different parts of the molecule. The structure activity relationship of PPV relative to two assays was assessed: inhibition of cellular OCR by Seahorse, and inhibition of PDE10A by purified enzyme activity in multiwell plate (PDE10A activity assay kit, BPS Bioscience). Because PPV can compete with rotenone as complex 1 inhibitors, it was reasoned that they may be binding the same site and therefore the structures would be similar relative to the mitochondrial binding target. […] Because the top was a planar structure similar to that of rotenone, and they compete with each other for the same binding pocket on complex 1 (FIG. 10) the lower portion of the molecule and how it may resemble rotenone were investigated in more detail. It was established that flexible linkage was preferred for mitochondrial activity and bulky adducts to the lower benzene ring may block it (FIG. 7C). […] These lead compounds were synthesized from commercial precursors and purified on silica gel column. Structures were confirmed by ^1H NMR and found to be >95% pure by HPLC.

[2] = target: T1, PDE10A (Homo sapiens, UniProt Q9Y233); test: PDE10A enzymatic assay (PDE10A activity assay kit, BPS Bioscience); type: biochemical; details: for Inhibitory activity PDE10A % of PPV: PDE10A inhibition at 1 μM, normalized to PPV
T1 construct: purchased BPS Bioscience
T1 sequence (Q9Y233 267-1055): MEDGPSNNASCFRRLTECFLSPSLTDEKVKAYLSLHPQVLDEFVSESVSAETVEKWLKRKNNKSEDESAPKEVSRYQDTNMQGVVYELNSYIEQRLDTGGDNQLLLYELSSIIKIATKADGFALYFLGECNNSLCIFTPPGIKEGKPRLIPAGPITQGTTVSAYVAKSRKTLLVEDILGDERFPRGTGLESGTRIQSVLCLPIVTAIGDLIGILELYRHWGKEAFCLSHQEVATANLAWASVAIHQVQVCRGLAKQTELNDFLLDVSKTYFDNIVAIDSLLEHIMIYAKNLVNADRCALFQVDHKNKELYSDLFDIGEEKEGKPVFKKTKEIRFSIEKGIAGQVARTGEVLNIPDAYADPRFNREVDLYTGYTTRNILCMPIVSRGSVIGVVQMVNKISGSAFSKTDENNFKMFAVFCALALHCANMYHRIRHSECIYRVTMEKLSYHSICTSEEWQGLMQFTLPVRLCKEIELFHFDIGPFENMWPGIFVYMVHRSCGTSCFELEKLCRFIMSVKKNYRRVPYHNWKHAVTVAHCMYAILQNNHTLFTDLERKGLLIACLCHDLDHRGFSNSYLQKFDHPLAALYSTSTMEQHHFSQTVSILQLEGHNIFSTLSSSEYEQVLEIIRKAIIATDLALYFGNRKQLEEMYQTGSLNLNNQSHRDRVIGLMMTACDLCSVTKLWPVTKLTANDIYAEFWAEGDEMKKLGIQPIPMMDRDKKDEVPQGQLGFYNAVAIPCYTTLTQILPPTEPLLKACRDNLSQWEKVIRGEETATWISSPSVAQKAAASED
Procedure: FIGS. 7A-7D show OCR and cellular toxicity data. […] Bars represent mean OCR and PDE10 inhibitory activities from at least 5 (OCR) or 3 (PDE) replicates. All experiments were repeated at least twice. […] Values are mean+−SEM. […]
The structure activity relationship of PPV relative to two assays was assessed: inhibition of cellular OCR by Seahorse, and inhibition of PDE10A by purified enzyme activity in multiwell plate (PDE10A activity assay kit, BPS Bioscience). […] These lead compounds were synthesized from commercial precursors and purified on silica gel column.

[3] = system: oxygen consumption (mitochondrial function); test: Seahorse XF analysis of oxygen consumption in vitro, cell line not stated; type: cell-based
Procedure: as §1

[4] = system: A549 cells; test: Seahorse OCR in A549 cells (dose response, IC50, washout); type: cell-based, Human; details: 1 μM rotenone, media replaced
[5] = system: A549 NDUFV1 KO NDI1 cells; type: cell-based, Human; details: 10 μM papaverine or 1 μM rotenone

SMILES | Inhibitory activity OCR % of PPV [1] | Inhibitory activity PDE10A % of PPV [2] | also measured
COc1cc2ccnc(C(O)c3ccc4c(c3)OCO4)c2cc1OC (centres unmarked) | 12.96 % of PPV | 67.90 % of PPV | 
COc1cc2ccnc(C(O)c3ccc(C)c(C)c3)c2cc1OC (centres unmarked) | 22.69 % of PPV |  | 
COc1cc2ccnc(C(=O)c3cc(C)cc(C)c3)c2cc1OC | 9.26 % of PPV | 30.52 % of PPV | 
COc1cc2c(cc1OC)C(Cc1ccc3c(c1)OCO3)=NCC2 | 5.55 % of PPV | 12.77 % of PPV | 
COc1ccc(OCc2nccc3cc(OC)c(OC)cc23)cc1OC | 72.05 % of PPV | 17.18 % of PPV | 
COc1cc2ccnc(C(=O)c3cc(C(F)(F)F)cc(C(F)(F)F)c3)c2cc1OC | 0 % of PPV | 17.69 % of PPV | 
COc1ccccc1OCC(O)CN1CCN(CC(=O)Nc2c(C)cccc2C)CC1 (centres unmarked) [ranolazine] |  |  | inhibition of oxygen consumption / mitochondrial function in vitro [3]: effective at inhibiting oxygen consumption
COc1ccc(-c2nccc3cc(OC)c(OC)cc23)cc1OC | 3.64 % of PPV | 69.55 % of PPV | 
COc1cc2ccnc(C(O)c3cc(OC)c(OC)c(OC)c3)c2cc1OC (centres unmarked) | 34.09 % of PPV | 72.86 % of PPV | 
COc1cc2ccnc(C(=O)c3ccccc3)c2cc1OC | 0 % of PPV | 26.28 % of PPV | 
COc1ccc(CCc2nccc3cc(OC)c(OC)cc23)cc1OC | 5.94 % of PPV | 20.16 % of PPV | 
COc1cc2ccnc(Cc3ccc4c(c3)OCO4)c2cc1OC | 11.11 % of PPV | 69.54 % of PPV | 
COc1cc2ccnc(Cc3ccc4ccccc4c3)c2cc1OC | 35.99 % of PPV | 100 % of PPV | 
COc1cc2ccnc(C(=O)c3ccc(C)c(C)c3)c2cc1OC | 9.64 % of PPV |  | 
COc1cc2ccnc(C(O)c3ccc4ccccc4c3)c2cc1OC (centres unmarked) | 29.26 % of PPV | 70.84 % of PPV | 
COc1ccc(Cc2nccc3cc(OC)c(OC)cc23)cc1 | 36.36 % of PPV | 79.93 % of PPV | 
COc1cc2ccnc(C(=O)c3cccc4ccccc34)c2cc1OC | 31.91 % of PPV | 0 % of PPV | 
COc1cc2ccnc(COc3cccc4ccccc34)c2cc1OC | 14.19 % of PPV |  | 
COc1ccc(C(O)c2nccc3cc(OC)c(OC)cc23)cc1 (centres unmarked) | 70.45 % of PPV | 35.44 % of PPV | 
COc1cc2ccnc(C(O)c3cc(C)cc(C)c3)c2cc1OC (centres unmarked) | 23.40 % of PPV | 0 % of PPV | 
C=C(C)[C@H]1Cc2c(ccc3c2O[C@@H]2COc4cc(OC)c(OC)cc4[C@@H]2C3=O)O1 [rotenone] | 193 % of PPV | 0 % of PPV | reversibility of OCR inhibition in washout [4]: no restoration in 3 hours; also recorded: irreversible inhibitor; response of mitochondria (OCR) to drug [5]: resistant
COc1cc2ccnc(Cc3cc(C)c(OCC(C)C)c(C)c3)c2cc1OC | 72.88 % of PPV | 29.13 % of PPV | 
COc1cc2c(cc1OC)C(Cc1cc(C)c(OC)c(C)c1)=NCC2 | 14.81 % of PPV | 37.27 % of PPV | 

SMILES | Inhibitory activity OCR % of PPV [1] | Inhibitory activity PDE10A % of PPV [2] | also measured
COc1cc2ccnc(Cc3cc(C)c(O)c(C)c3)c2cc1OC | 5.86 % of PPV | 85.02 % of PPV | 
COc1cc2ccnc(C(=O)c3ccc4c(c3)OCO4)c2cc1OC | 5.55 % of PPV | 51.12 % of PPV | 
COc1cc2ccnc(Cc3cc(C(F)(F)F)cc(C(F)(F)F)c3)c2cc1OC | 33.4 % of PPV | 10.28 % of PPV | 
COc1cc2c(cc1OC)C(Cc1cc(C)cc(C)c1)=NCC2 | 30.09 % of PPV | 40.00 % of PPV | 
[H]/N=C(/N)N/C(=N/[H])NCCc1ccccc1 [phenformin] |  |  | inhibition of oxygen consumption / mitochondrial function in vitro [3]: effective at inhibiting oxygen consumption
COc1cc2ccnc(Cc3cc(C)c(OC)c(C)c3)c2cc1OC | 91.18 % of PPV | 64.65 % of PPV | 
Cc1cccc(CN2CCN(C(c3ccccc3)c3ccc(Cl)cc3)CC2)c1 (centres unmarked) [meclizine] |  |  | inhibition of oxygen consumption / mitochondrial function in vitro [3]: effective at inhibiting oxygen consumption
COc1cc2ccnc(C(O)c3cccc4ccccc34)c2cc1OC (centres unmarked) | 18 % of PPV | 24.24 % of PPV | 
COc1cc2ccnc(C(O)c3cc(C)c(OC)c(C)c3)c2cc1OC (centres unmarked) | 10.35 % of PPV | 29.18 % of PPV | 
COc1cc2ccnc(C(=O)c3cc(OC)c(OC)c(OC)c3)c2cc1OC | 13.63 % of PPV | 63.39 % of PPV | 
COc1cc2ccnc(Cc3cc(OC)c(OC)c(OC)c3)c2cc1OC | 34.09 % of PPV | 37.37 % of PPV | 
COc1cc2ccnc(Cc3ccc(C)c(C)c3)c2cc1OC | 17.43 % of PPV |  | 
COc1cc2ccnc(C(=O)c3ccc4ccccc4c3)c2cc1OC | 4.34 % of PPV | 0 % of PPV | 
CN(C)C(=N)N=C(N)N [Metformin] |  |  | inhibition of oxygen consumption / mitochondrial function in vitro [3]: effective at inhibiting oxygen consumption
COc1cc2ccnc(C(O)c3ccccc3)c2cc1OC (centres unmarked) | 12.07 % of PPV | 23.60 % of PPV | 
COc1cc2ccnc(C(O)c3cc(C(F)(F)F)cc(C(F)(F)F)c3)c2cc1OC (centres unmarked) | 48.27 % of PPV | 16.58 % of PPV | 
COc1ccc(C(=O)c2nccc3cc(OC)c(OC)cc23)cc1 | 29.55 % of PPV | 65.88 % of PPV | 
COc1cc2ccncc2cc1OC [DMIQ, reference compound] | 0 % of PPV | 0 % of PPV | activity in cellular OCR assay [1]: inactive; activity in PDE10A assay ([2]; purified enzyme): inactive
COc1cc2ccnc(C(=O)c3cc(C)c(OC)c(C)c3)c2cc1OC | 0 % of PPV | 50.92 % of PPV | 
C=C(C)COc1c(C)cc(C(=O)c2nccc3cc(OC)c(OC)cc23)cc1C | 15.51 % of PPV | 74.38 % of PPV | 
C=C(C)COc1c(C)cc(Cc2nccc3cc(OC)c(OC)cc23)cc1C | 74.81 % of PPV | 59.69 % of PPV | 
C=C(C)COc1c(C)cc(C(O)c2nccc3cc(OC)c(OC)cc23)cc1C (centres unmarked) | 84.42 % of PPV | 73.33 % of PPV | 
